What is called IC50 is the concentration that gives 50% inhibition. High values mean a need for much substance, low ones inhibition by little substance.

The assay concerns the target T1, Proprotein convertase subtilisin/kexin type 9 (PCSK9) (Homo sapiens, UniProt Q8NBP7).
T1 construct: His-tagged recombinant PCSK9 wild type
Kind of assay: CircuLex PCSK9-LDLR in vitro binding assay kit (plate-based, ELISA-type).

T1 sequence (Q8NBP7 31-152): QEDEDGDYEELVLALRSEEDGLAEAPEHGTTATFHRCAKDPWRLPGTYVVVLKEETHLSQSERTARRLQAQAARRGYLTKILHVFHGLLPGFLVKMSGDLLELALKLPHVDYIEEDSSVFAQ
T1 sequence (Q8NBP7 153-692): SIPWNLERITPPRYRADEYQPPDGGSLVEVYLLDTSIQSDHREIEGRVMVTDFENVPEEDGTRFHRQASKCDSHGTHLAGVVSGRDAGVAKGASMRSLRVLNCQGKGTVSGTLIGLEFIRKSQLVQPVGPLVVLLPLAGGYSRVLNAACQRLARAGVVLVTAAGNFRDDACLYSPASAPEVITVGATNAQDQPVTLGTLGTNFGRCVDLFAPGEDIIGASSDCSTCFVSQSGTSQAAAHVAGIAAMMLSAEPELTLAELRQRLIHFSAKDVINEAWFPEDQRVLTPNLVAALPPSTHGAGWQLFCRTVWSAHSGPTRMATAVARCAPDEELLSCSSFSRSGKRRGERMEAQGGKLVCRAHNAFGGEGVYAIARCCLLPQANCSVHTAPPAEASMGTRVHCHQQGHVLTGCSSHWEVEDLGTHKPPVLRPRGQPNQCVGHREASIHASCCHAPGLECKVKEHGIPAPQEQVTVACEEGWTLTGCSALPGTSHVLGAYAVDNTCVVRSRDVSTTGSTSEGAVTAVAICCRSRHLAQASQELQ
T1 sequence (P01130 22-860 partner): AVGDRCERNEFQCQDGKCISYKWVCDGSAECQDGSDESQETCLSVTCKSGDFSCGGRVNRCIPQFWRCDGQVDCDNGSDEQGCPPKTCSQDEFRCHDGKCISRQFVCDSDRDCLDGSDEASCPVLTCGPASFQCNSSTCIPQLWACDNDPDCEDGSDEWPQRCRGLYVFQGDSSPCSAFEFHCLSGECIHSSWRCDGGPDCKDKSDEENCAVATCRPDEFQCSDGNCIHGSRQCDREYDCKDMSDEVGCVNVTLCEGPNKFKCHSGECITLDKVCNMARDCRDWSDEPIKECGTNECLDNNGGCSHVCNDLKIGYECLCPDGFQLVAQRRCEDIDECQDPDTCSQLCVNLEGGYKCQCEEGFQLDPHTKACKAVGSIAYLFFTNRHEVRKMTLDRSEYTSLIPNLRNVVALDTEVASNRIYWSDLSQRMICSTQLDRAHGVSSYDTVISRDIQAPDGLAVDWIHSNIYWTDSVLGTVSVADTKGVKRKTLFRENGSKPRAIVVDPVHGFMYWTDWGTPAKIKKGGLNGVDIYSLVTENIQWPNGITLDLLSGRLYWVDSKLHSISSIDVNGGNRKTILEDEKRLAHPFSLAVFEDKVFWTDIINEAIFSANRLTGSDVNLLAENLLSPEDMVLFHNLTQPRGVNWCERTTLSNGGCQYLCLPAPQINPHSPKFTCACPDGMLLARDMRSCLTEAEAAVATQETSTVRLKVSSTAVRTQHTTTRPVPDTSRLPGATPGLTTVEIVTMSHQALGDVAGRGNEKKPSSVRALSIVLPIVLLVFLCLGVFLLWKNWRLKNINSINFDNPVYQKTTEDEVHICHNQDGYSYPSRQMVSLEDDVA

Regarding `Oc1ccc2c(c1)OC[C@]1(O)Cc3cc(O)c(O)cc3[C@H]21` [brazilin], the IC50 was determined as 2190 nM. That is a single-digit micromolar value.

Values taken from publication PMC10584496, “Brazilin from Caesalpinia sappan L. as a Proprotein Convertase Subtilisin/Kexin Type 9 (PCSK9) Inhibitor: Pharmacophore-Based Virtual Screening, In Silico Molecular Docking, and In Vitro Studies” (Advances in Pharmacological and Pharmaceutical Sciences, 2023).
